Measured values reported in patent US4587218A, “Novel bioconverting microorganisms” (priority 1983, dated 1986).

Experiments:
[1] = system: wild-type strain (ATCC 23342); experiment: Buffer toxicity at pH 7.0, wild-type strain; conditions: buffers 0.05M adjusted to pH 7.0, growth checked
[2] = system: mutants (ATCC 31683, CSV 558 and CUC 014); experiment: Buffer toxicity at pH 7.0, mutant strains; conditions: all the mutants; buffers 0.05M adjusted to pH 7.0, growth checked
[3] = system: Cultures ATCC 23342, ATCC 31683, CSV 558 and CUC 014; experiment: Sensitivity to nine antibiotics, all four cultures; type: cell-based, Actinoplanes missouriensis; conditions: identical pattern
Description: Temperature range, NaCl and sucrose tolerances, pH range, and antibiotic sensitivity were determined using ISP No. 2 (yeast-malt extract agar) plates. Plates were incubated at 30° C. for 14 days. The temperatures tested were 5°, 10°, 15°, 20°, 25°, 30°, 37°, 40°, 45°, 50° and 55° C.
Antibiotic sensitivity was determined using sensitivity discs padded on the surface of seeded agar plates. The following antibiotics were used: cephalothin (sodium) 30 μg, erythromycin (estolate) 15 μg, chloromycetin 30 μg, novobiocin 30 μg, penicillin (G) 10 units, rifampin 5 μg, streptomycin 10 μg, tetracycline 30 μg and vancomycin 30 μg.

| Structure (SMILES) | sensitivity to citric acid [1] | sensitivity to citric acid [2] | sensitivity to nine antibiotics [3] |
| --- | --- | --- | --- |
| O=C(O)CC(O)(CC(=O)O)C(=O)O [citric acid] | not sensitive | sensitive | – |
| CC1(C)S[C@@H]2[C@H](NC(=O)Cc3ccccc3)C(=O)N2[C@H]1C(=O)O [Penicillin G] | – | – | Resistance |
| CO[C@@H]1[C@@H](OC(N)=O)[C@@H](O)[C@H](Oc2ccc3c(O)c(NC(=O)c4ccc(O)c(CC=C(C)C)c4)c(=O)oc3c2C)OC1(C)C [Novobiocin] | – | – | Resistance |
